{"source": "patent US20250375444A1", "about": "“METHOD OF TREATING ALZHEIMER’S DISEASE” (AmyriAD Pharma, Inc., priority 2021, published 2025)", "key": {"[1]": {"test_system": "AD subjects", "experiment": "12-week open-label multicenter safety extension study (Study 401) of AD101", "description": "(§1) Subjects were titrated as follows: all subjects receive 60 mg once daily for the first month, 120 mg once daily for the second month and 180 mg once daily for the third month. Dose increases were dependent on the subject's tolerability of the previous dose."}, "[2]": {"test_system": "AD subjects", "experiment": "Safety extension study: subjects started on memantine hydrochloride", "format": "in vivo, human", "details": "for Adverse Events during Memantine Co-administration: 401: 180 mg AD101", "description": "as §1"}, "[3]": {"test_system": "nicotine-stimulated release of ACh"}, "[4]": {"test_system": "extracellular ACh and dopamine concentrations"}, "[5]": {"test_system": "subjects having probable AD", "details": "cited from earlier work"}, "[6]": {"test_system": "acetylcholine (ACh) levels", "details": "rodent brains; cited from earlier work"}, "[7]": {"test_system": "long-term potentiation (LTP)", "details": "cited from earlier work"}, "[8]": {"test_system": "protein kinase C", "details": "cited from earlier work"}, "[9]": {"test_system": "Ca^2+/calmodulin-dependent protein kinase II (CaMK II)", "details": "cited from earlier work"}, "[10]": {"test_system": "Aβ-like deposits", "details": "in vivo; cited from earlier work"}, "[11]": {"test_system": "amyloid precursor protein", "details": "cited from earlier work"}, "[12]": {"test_system": "pro-ADAM10 and/or BACE protein", "details": "cited from earlier work"}, "[13]": {"test_system": "ubiquitin-proteasome system pathway", "details": "cited from earlier work"}, "[14]": {"details": "Total, unique subjects (N = 293)"}, "[15]": {"details": "Total, unique subjects (N = 293), denominator 293"}, "[16]": {"details": "all doses, safety population 293 subjects"}}, "note": "Entries after “also recorded” stand apart in the source; their conditions may differ. Like-named read-outs stand apart in the source and are kept apart here.", "data": [{"smiles": "O=C1N=C2C=CC=CN2C12Cc1ccccc1C2", "note": "[AD101, 1′,3′-dihydro-2H-spiro[imidazo[1,2α]pyridine-3,2′-inden]-2-one]", "values": [{"measurement": "Discontinued Early", "setting": "[1]; 60 mg QD (N = 293)", "value": 16, "unit": "n"}, {"measurement": "Discontinued Early: Adverse Event", "setting": "[1]; 60 mg QD (N = 293)", "value": 8, "unit": "n"}, {"measurement": "Discontinued Early: Adverse Event", "setting": "[1]; 60 mg QD (N = 293), denominator 293", "value": "(2.7) %"}, {"measurement": "Discontinued Early", "setting": "[1]; 120 mg QD (N = 276)", "value": 14, "unit": "n"}, {"measurement": "Discontinued Early: Adverse Event", "setting": "[1]; 120 mg QD (N = 276)", "value": 4, "unit": "n"}, {"measurement": "Discontinued Early: Adverse Event", "setting": "[1]; 120 mg QD (N = 276), denominator 293", "value": "(1.4) %"}, {"measurement": "AE: Fatigue", "setting": "[1]; 180 mg (N = 243)", "value": 0, "unit": "n"}, {"measurement": "AE: Somnolence", "setting": "[1]; 180 mg (N = 243)", "value": 0, "unit": "n"}, {"measurement": "Discontinued Early", "setting": "[1]; 180 mg QD (N = 243)", "value": 6, "unit": "n"}, {"measurement": "Discontinued Early: Adverse Event", "setting": "[1]; 180 mg QD (N = 243)", "value": 5, "unit": "n"}, {"measurement": "Discontinued Early: Adverse Event", "setting": "[1]; 180 mg QD (N = 243), denominator 293", "value": "(1.7) %"}, {"measurement": "Safety of 180 mg QD versus lower doses", "setting": "[1]; 180 mg QD vs 60 mg QD and 120 mg QD", "value": "at least as safe as"}, {"measurement": "New safety or tolerability issues", "setting": "[1]; 3-month open-label extension, 60 to 180 mg QD", "value": "No new safety or tolerability issues were identified"}, {"measurement": "Pattern of nature or frequency of specific AE related to dose", "setting": "[1]; 60, 120, 180 mg", "value": "There does not appear to be any pattern related to AD101 dose"}, {"measurement": "Relationship of SAEs to study drug (investigator)", "setting": "[1]; SAE #00036: syncope, person on 180 mg", "value": "unrelated to study drug with the exception of SAE #00036"}, {"measurement": "Discontinued Early", "setting": "[1]; [14]", "value": 36, "unit": "n"}, {"measurement": "Discontinued Early: Adverse Event", "setting": "[1]; [14]", "value": 17, "unit": "n"}, {"measurement": "Subjects with any AE", "setting": "[1]; [14]", "value": 51.2, "unit": "%"}, {"measurement": "Discontinued Early", "setting": "[1]; [15]", "value": "(12.3) %"}, {"measurement": "Discontinued Early: Adverse Event", "setting": "[1]; [15]", "value": "(5.8) %"}, {"measurement": "Serious Adverse Events (SAEs), number of events", "setting": "[1]; [16]", "value": 17}, {"measurement": "Subjects with Serious Adverse Events", "setting": "[1]; [16]", "value": 17, "unit": "subjects"}, {"measurement": "SAE Event (individual subject)", "setting": "[1]; dose at time of event 60 mg", "value": "Asthma; also recorded: Chest Pain; also recorded: Fractured Wrist; also recorded: Seizure; also recorded: Syncope (vasovagal); also recorded: Vestibular neuronitis; also recorded: GI bleed 2°to"}, {"measurement": "SAE Event (individual subject)", "setting": "[1]; dose at time of event 120 mg", "value": "Lightheaded; also recorded: Fractured right; also recorded: Fx Left"}, {"measurement": "SAE Event (individual subject)", "setting": "[1]; dose at time of event 180 mg", "value": "Syncope; also recorded: Fractured; also recorded: Chest Pain; also recorded: Pneumonia/Pulmonary"}, {"measurement": "SAE Event (individual subject)", "setting": "[1]; dose at time of event N/A (10 days after completing 401)", "value": "Multiple CVAs"}, {"measurement": "Death", "setting": "[1]; multiple cerebral vascular accidents, deemed unrelated, 10 days post-study after 60, 120 and 180 mg for 4 weeks each", "value": 1}, {"measurement": "SAEs by dose at time of event", "setting": "[1]; on 60 mg AD101", "value": 7}, {"measurement": "SAEs by dose at time of event", "setting": "[1]; on 120 mg AD101", "value": 5}, {"measurement": "SAEs by dose at time of event", "setting": "[1]; on 180 mg AD101", "value": 4}, {"measurement": "Laboratory or vitals sign abnormalities", "setting": "[2]; 5 subjects taking memantine hydrochloride, AD101 up to 180 mg", "value": "no clinically significant laboratory or vitals sign abnormalities were observed"}, {"measurement": "Adverse Events during Memantine Co-administration", "setting": "[2]; Subject 03-2003, memantine 5 mg BID ongoing", "value": "No new AEs."}, {"measurement": "Adverse Events during Memantine Co-administration", "setting": "[2]; Subject 14-2108, memantine titrated 5 mg QD to 10 mg BID over 4 weeks", "value": "No new AEs."}, {"measurement": "Adverse Events during Memantine Co-administration", "setting": "[2]; Subject 14-2178, memantine titrated 5 mg QD to 10 mg BID over 4 weeks", "value": "Sinus headache ×1 day,; also recorded: Dizzy/lightheaded over 18; also recorded: Vomiting ×1 day, occurred 2"}, {"measurement": "Adverse Events during Memantine Co-administration", "setting": "[2]; Subject 18-2018, memantine 10 mg QD", "value": "Decreased appetite ×9 days; also recorded: UTI ×7 days began 30 days; also recorded: Confusion ×8 days, began 38; also recorded: Anxiety, ongoing at; also recorded: URI ×14 days began 30 days"}, {"measurement": "Adverse Events during Memantine Co-administration", "setting": "[2]; Subject 18-2122, memantine 10 mg QD", "value": "No new AEs."}, {"measurement": "Nicotine-stimulated release of ACh", "setting": "[3]", "value": "potentiates"}, {"measurement": "Extracellular ACh concentrations", "setting": "[4]; cerebral cortex", "value": "increases"}, {"measurement": "Extracellular ACh concentrations", "setting": "[4]; hippocampus", "value": "increases"}, {"measurement": "Extracellular dopamine concentrations", "setting": "[4]; hippocampus", "value": "increases"}, {"measurement": "Dose response in primary outcome measures", "setting": "[5]; 10, 60 and 120 mg per day analyzed separately", "value": "no discernable dose response"}, {"measurement": "AD101-related safety concerns", "setting": "[5]; up to 120 mg QD, 12 weeks, with 10 mg donepezil hydrochloride QD", "value": "No significant AD101-related safety concerns were identified"}, {"measurement": "Acetylcholine (ACh) levels", "setting": "[6]", "value": "increase"}, {"measurement": "Long-term potentiation (LTP)", "setting": "[7]", "value": "enhancement"}, {"measurement": "Activity of protein kinase C", "setting": "[8]", "value": "increased activity"}, {"measurement": "Activity of CaMK II", "setting": "[9]", "value": "increased activity"}, {"measurement": "Accumulation of Aβ-like deposits", "setting": "[10]", "value": "decreases accumulation"}, {"measurement": "Cleavage of amyloid precursor protein", "setting": "[11]", "value": "induce cleavage"}, {"measurement": "Level of pro-ADAM10 and/or BACE protein", "setting": "[12]", "value": "decrease the level"}, {"measurement": "Activity of the ubiquitin-proteasome system pathway", "setting": "[13]", "value": "enhance the activity"}]}]}
